Measurements from PubChem BioAssay AID1963972 (Molecular Pharmacology Branch, DTP, NCI, 2024).

System: 945468-187-T-J2-PDC spheroids viability
Test: Anticancer human tumor 945468-187-T-J2-PDC patient-derived rectal carcinoma cell line growth inhibition [PI3K]
Settings: spheroids with HUVEC and MSC; for IC50: curve of first compound; for viability, T/C: stronger effect = lower value
How it was run: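 Agents were dosed from a top concentration near clinical Cmax (otherwise 10 microM) in half-log decrements, alone or combined with PI3K inhibitors. The spheroids contain tumor cells plus endothelial (HUVEC) and MSC stroma; viability is measured.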
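Note: spheroids exposed to compounds for seven days before reading.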

CNC(=O)c1ccc(N2C(=S)N(c3ccc(C#N)c(C(F)(F)F)c3)C(=O)C2(C)C)cc1F + Cc1nc(NC(=O)N2CCCC2C(N)=O)sc1-c1ccnc(C(C)(C)C(F)(F)F)c1
IC50 (second compound 0.0316 µM): > 10 µM | IC50 (second compound 0.1 µM): > 10 µM | IC50 (second compound 0.316 µM): > 10 µM | IC50 (second compound 1 µM): > 10 µM | IC50 (second compound 3.16 µM): > 10 µM | IC50 (second compound 10 µM): > 10 µM | viability, T/C (second compound 0.0316 µM, first compound 0.0316 µM): 116% | viability, T/C (second compound 0.0316 µM, first compound 0.1 µM): 103% | viability, T/C (second compound 0.0316 µM, first compound 0.316 µM): 88.8% | viability, T/C (second compound 0.0316 µM, first compound 1 µM): 106% | viability, T/C (second compound 0.0316 µM, first compound 3.16 µM): 108% | viability, T/C (second compound 0.0316 µM, first compound 10 µM): 102% | viability, T/C (second compound 0.1 µM, first compound 0.0316 µM): 95.4% | viability, T/C (second compound 0.1 µM, first compound 0.1 µM): 82% | viability, T/C (second compound 0.1 µM, first compound 0.316 µM): 91.3% | viability, T/C (second compound 0.1 µM, first compound 1 µM): 95.5% | viability, T/C (second compound 0.1 µM, first compound 3.16 µM): 102% | viability, T/C (second compound 0.1 µM, first compound 10 µM): 85.7% | viability, T/C (second compound 0.316 µM, first compound 0.0316 µM): 108% | viability, T/C (second compound 0.316 µM, first compound 0.1 µM): 105% | viability, T/C (second compound 0.316 µM, first compound 0.316 µM): 91.5% | viability, T/C (second compound 0.316 µM, first compound 1 µM): 118% | viability, T/C (second compound 0.316 µM, first compound 3.16 µM): 85.5% | viability, T/C (second compound 0.316 µM, first compound 10 µM): 92.6% | viability, T/C (second compound 1 µM, first compound 0.0316 µM): 93.3% | viability, T/C (second compound 1 µM, first compound 0.1 µM): 86.2% | viability, T/C (second compound 1 µM, first compound 0.316 µM): 110% | viability, T/C (second compound 1 µM, first compound 1 µM): 79.8% | viability, T/C (second compound 1 µM, first compound 3.16 µM): 78.4% | viability, T/C (second compound 1 µM, first compound 10 µM): 92.9% | viability, T/C (second compound 3.16 µM, first compound 0.0316 µM): 81.1% | viability, T/C (second compound 3.16 µM, first compound 0.1 µM): 85.8% | viability, T/C (second compound 3.16 µM, first compound 0.316 µM): 84.7% | viability, T/C (second compound 3.16 µM, first compound 1 µM): 83% | viability, T/C (second compound 3.16 µM, first compound 3.16 µM): 89% | viability, T/C (second compound 3.16 µM, first compound 10 µM): 83.6% | viability, T/C (second compound 10 µM, first compound 0.0316 µM): 83.1% | viability, T/C (second compound 10 µM, first compound 0.1 µM): 68.5% | viability, T/C (second compound 10 µM, first compound 0.316 µM): 74.1% | viability, T/C (second compound 10 µM, first compound 1 µM): 73.5% | viability, T/C (second compound 10 µM, first compound 3.16 µM): 72.6% | viability, T/C (second compound 10 µM, first compound 10 µM): 63.5%

Cn1cnc2c(F)c(Nc3ccc(Br)cc3Cl)c(C(=O)NOCCO)cc21 + Cc1nc(NC(=O)N2CCCC2C(N)=O)sc1-c1ccnc(C(C)(C)C(F)(F)F)c1
IC50 (second compound 0.0316 µM): > 3 µM | IC50 (second compound 0.1 µM): > 3 µM | IC50 (second compound 0.316 µM): > 3 µM | IC50 (second compound 1 µM): > 3 µM | IC50 (second compound 3.16 µM): 2.6 µM | IC50 (second compound 10 µM): 0.895 µM | viability, T/C (second compound 0.0316 µM, first compound 0.00949 µM): 87.9% | viability, T/C (second compound 0.0316 µM, first compound 0.03 µM): 73.6% | viability, T/C (second compound 0.0316 µM, first compound 0.0949 µM): 79.8% | viability, T/C (second compound 0.0316 µM, first compound 0.3 µM): 71.8% | viability, T/C (second compound 0.0316 µM, first compound 0.949 µM): 66.7% | viability, T/C (second compound 0.0316 µM, first compound 3 µM): 62% | viability, T/C (second compound 0.1 µM, first compound 0.00949 µM): 110% | viability, T/C (second compound 0.1 µM, first compound 0.03 µM): 84.5% | viability, T/C (second compound 0.1 µM, first compound 0.0949 µM): 88.9% | viability, T/C (second compound 0.1 µM, first compound 0.3 µM): 77.4% | viability, T/C (second compound 0.1 µM, first compound 0.949 µM): 70.9% | viability, T/C (second compound 0.1 µM, first compound 3 µM): 63.1% | viability, T/C (second compound 0.316 µM, first compound 0.00949 µM): 99% | viability, T/C (second compound 0.316 µM, first compound 0.03 µM): 74.1% | viability, T/C (second compound 0.316 µM, first compound 0.0949 µM): 82.4% | viability, T/C (second compound 0.316 µM, first compound 0.3 µM): 75.1% | viability, T/C (second compound 0.316 µM, first compound 0.949 µM): 68.7% | viability, T/C (second compound 0.316 µM, first compound 3 µM): 69.4% | viability, T/C (second compound 1 µM, first compound 0.00949 µM): 71.7% | viability, T/C (second compound 1 µM, first compound 0.03 µM): 114% | viability, T/C (second compound 1 µM, first compound 0.0949 µM): 80.6% | viability, T/C (second compound 1 µM, first compound 0.3 µM): 76.6% | viability, T/C (second compound 1 µM, first compound 0.949 µM): 66.5% | viability, T/C (second compound 1 µM, first compound 3 µM): 55.6% | viability, T/C (second compound 3.16 µM, first compound 0.00949 µM): 68.6% | viability, T/C (second compound 3.16 µM, first compound 0.03 µM): 78% | viability, T/C (second compound 3.16 µM, first compound 0.0949 µM): 97.3% | viability, T/C (second compound 3.16 µM, first compound 0.3 µM): 67.8% | viability, T/C (second compound 3.16 µM, first compound 0.949 µM): 70.8% | viability, T/C (second compound 3.16 µM, first compound 3 µM): 47.1% | viability, T/C (second compound 10 µM, first compound 0.00949 µM): 77.3% | viability, T/C (second compound 10 µM, first compound 0.03 µM): 68.2% | viability, T/C (second compound 10 µM, first compound 0.0949 µM): 68.8% | viability, T/C (second compound 10 µM, first compound 0.3 µM): 61.2% | viability, T/C (second compound 10 µM, first compound 0.949 µM): 51.8% | viability, T/C (second compound 10 µM, first compound 3 µM): 10.5%
